Experimental data: patent US8614213B2 (Novartis AG, priority 2008, dated 2013)

These compounds were tested against human recombinant CRF-1 receptor (Homo sapiens (Human), UniProt P34998) (assay: CRF-1 receptor antagonism, HTRF cAMP assay in CHO cells in the presence of 1 nM CRF). Details: CHO cells expressing human recombinant CRF-1.
human recombinant CRF-1 receptor, sequence (P34998 24-415): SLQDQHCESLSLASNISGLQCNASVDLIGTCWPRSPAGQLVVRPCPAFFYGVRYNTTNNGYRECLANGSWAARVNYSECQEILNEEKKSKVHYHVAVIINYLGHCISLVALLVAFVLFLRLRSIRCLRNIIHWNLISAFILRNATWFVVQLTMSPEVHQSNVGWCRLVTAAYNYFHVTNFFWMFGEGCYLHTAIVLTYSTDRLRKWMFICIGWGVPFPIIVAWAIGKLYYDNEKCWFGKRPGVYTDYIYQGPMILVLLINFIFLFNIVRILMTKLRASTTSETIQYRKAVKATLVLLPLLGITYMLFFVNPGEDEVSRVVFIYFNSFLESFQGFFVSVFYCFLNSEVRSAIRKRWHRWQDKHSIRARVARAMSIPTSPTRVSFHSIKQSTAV
Type: cell-based
Description: The CRF-1 or CRF-2a receptor antagonistic activity of the agents of the invention has been determined in vitro in the following assay:
Chinese hamster ovary (CHO) cells expressing either the human recombinant CRF-1 or CRF-2a receptors (Chen et al., Proc Natl Acad Sci USA 90, 8967-8971, 1993; Liaw et al., Endocrinology 137, 72-77, 1996) are propagated in Dulbecco's modified Eagle medium supplemented with 10% foetal calf serum, non-essential amino acids, 100 U/ml penicillin, 100 mg/l streptomycin and 1 g/l geneticin (G418). For cyclic AMP determinations the Homogeneous Time-Resolved Fluoresce (HTRF) cAMP dynamic 2 kit (Cisbio International, France) was used as per manufacturers' instructions. CHO cells, previously cryopreserved, were thawed, centrifuged for 7 mins at 1200 rpm and resuspended in serum free media, then pipetted out onto clear bottomed black tissue culture treated 384-well microtitre plates (Corning Inc, US) at 2,000 cells per well. Compounds of the invention, prepared in DMSO, and subsequently diluted 50 fold in assay buffer (1× Hanks balanced salt solution, 0.2% (w/v) bovine serum albumin, 1.7 mM isobutylmethylxanthine and 10 mM Hepes, pH7.4) are then added onto the cell containing plate where a further 2 fold dilution is performed and incubated for 15 min. Following incubation, buffer containing a 5 times final concentration of agonist is added to the plate and incubated for 30 min. Finally, d2 dye labelled cAMP and cryptate labeled anti-cAMP antibody, both made in lysis buffer, are added to the plate followed by a settling period of 1 hour. During the settling period cAMP produced by the cells competes with the d2 labelled cAMP for the anti-cAMP cryptate. The plate is read on the Pherastar (BMG, Germany). […] Values represented by a change in arbitrary fluorescence units are converted into cAMP concentrations by use of a standard curve the reagents for which are supplied with the kit. […] IC50 values of antagonists are calculated by fitting the percent inhibition of the effect of CRF by increasing concentrations of the antagonists. […]
“2-Chloro-N-(2RS-methyl-4-phenylaminomethyl-cyclohexyl)-5-trifluoromethyl-benzamide [Example 16]” was tested, and the IC50 was 51 nM. Compound `Cc1cc(N2CCNC2=O)nn1C[C@H]1CC[C@H](NC(=O)c2cc(C(F)(F)F)ccc2Cl)CC1` [Example 21.5, 2-Chloro-N-{4-[5-methyl-3-(2-oxo-imi-dazolidin-1-yl)-pyrazol-1-ylmethyl]-cyclohexyl}-5-trifluoromethyl-ben zamide] has an IC50 of 157 nM. Work on `Cc1nn(C[C@H]2CC[C@H](NC(=O)c3cc(C(F)(F)F)ccc3Cl)CC2)c(C)c1C` [Example 21.11] yielded an IC50 of 140 nM.
